One assay deals with SYK (Homo sapiens, UniProt P43405). Kind of assay: SYK enzyme assay, coupled enzyme assay. The format is biochemical. The following applies: 200 μM ATP, 4 μM poly Gly-Tyr peptide, 30° C. The protocol: Compounds were screened for their ability to inhibit SYK using a standard coupled enzyme assay (Fox et al., Protein Sci. 1998, 7, 2249). Reactions were carried out in 100 mM HEPES (pH 7.5), 10 mM MgCl2, 25 mM NaCl, 1 mM DTT and 1.5% DMSO. Final substrate concentrations in the assay were 200 μM ATP (Sigma chemical Co.) and 4 μM poly Gly-Tyr peptide (Sigma Chemical Co.). Assays were carried out at 30° C. and 200 nM SYK. Final concentrations of the components of the coupled enzyme system were 2.5 mM phosphoenolpyruvate, 300 μM NADH, 30 μg/ml pyruvate kinase and 10 μg/ml lactate dehydrogenase.
An assay stock buffer solution was prepared containing all of the reagents listed above, with the exception of SYK, DTT, and the test compound of interest of the present invention. 56 μl of the test reaction was placed in a 96 well plate followed by the addition of 1 μl of 2 mM DMSO stock containing the test compound of the present invnetion (final compound concentration 30 μM). The plate was pre-incubated for ˜10 minutes at 30° C. and the reaction initiated by the addition of 10 μl of enzyme (final concentration 25 nM). Rates of reaction were obtained using a BioRad Ultramark plate reader (Hercules, Calif.) over a 5 minute read time at 30° C., and Ki values for the compounds of the present invention were determined according to standard methods.

Another assay concerns the target T1, TAK1A-TAB fusion protein (Homo sapiens, UniProt O43318).
T1 construct: using 20 nM TAK1A-TAB fusion protein
T1 sequence (O43318 with tags, fused parts or gaps isoform O43318-2 limits assumed): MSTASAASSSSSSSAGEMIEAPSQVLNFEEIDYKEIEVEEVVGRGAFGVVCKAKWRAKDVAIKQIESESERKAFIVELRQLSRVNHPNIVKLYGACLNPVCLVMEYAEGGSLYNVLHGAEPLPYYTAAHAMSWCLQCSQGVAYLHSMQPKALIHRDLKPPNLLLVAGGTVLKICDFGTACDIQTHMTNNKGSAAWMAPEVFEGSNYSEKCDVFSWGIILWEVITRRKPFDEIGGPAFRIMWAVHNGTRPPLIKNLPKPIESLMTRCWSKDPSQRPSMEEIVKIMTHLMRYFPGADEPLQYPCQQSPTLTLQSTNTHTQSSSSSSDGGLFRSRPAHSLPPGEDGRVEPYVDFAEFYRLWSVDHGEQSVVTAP
Kind of assay: TAK-1 inhibition assay, radiometric filter binding assay. The format is biochemical. The following applies: 50 μM ATP, 12 μM bovine myelin basic protein, 20 nM TAK1A-TAB fusion protein. The protocol:
Compounds were screened for their ability to inhibit TAK1A kinase activity using a radiometric filter binding assay. Reactions were carried out in a solution containing Buffer A (100 mM HEPES (pH 7.5), 10 mM MgCl2), 25 mM NaCl, 2 mM DTT, and 1.5% DMSO. Final substrate concentrations in the assay were 50 μM ATP (a mixture of unlabeled ATP (Sigma Chemicals, St Louis, Mo.) and ^33P-labeled ATP (PerkinElmer Life Sciences, Boston, Mass.) for a final specific activity of 50 Ci/mol), and 12 μM bovine myelin basic protein (MBP, Vertex Pharmaceuticals, Cambridge, Mass.). Reactions were carried out at ambient temperature (˜20° C.) using 20 nM TAK1A-TAB fusion protein. Under these conditions the extent of reaction is linear with time for a period of 2 hours.
A test compound of the present invention (1 μL in DMSO) was combined with ATP and Buffer A in a final volume of 47 μL in a 96 well plate. Typically, a 6 point titration was conducted by preparing serial dilutions (from 10 mM compound stocks) with DMSO of the test compounds of the present invention in daughter plates, for final concentrations spanning 0.046 μM to 3.73 μM. The reaction was initiated by the addition of 20 μl of an enzyme stock solution consisting of TAK1A-TAB fusion (described by Sugita, T. et al. in Biochem. Biophys. Res. Comm. 2002, 297, 1277-1281), MBP, Buffer A, NaCl, and DTT. The reaction was allowed to proceed for two hours at ambient temperature, then quenched with an equal volume of 10 mM unlabeled ATP in 10% trichloroacetic acid. A 110 μL aliquot of the quenched reaction was transferred to a Multiscreen PH filter plate (Millipore, Billerica, Mass.) and allowed to incubate at ambient temperature overnight (typically 16-20 hours). Following incubation the filter plates were washed with 3×150 μL aliquots of 5% trichloroacetic acid using a modified Biotek Elx405 plate washer. A 70 μL aliquot of Microscint 20 scintillation fluid (PerkinElmer) was added to each well, and the plate was then sealed and read on a TopCount NXT microplate scintillation counter (PerkinElmer). The Ki values were determined from the rate data as a function of inhibitor concentration.

Where only a bound is given, the exact number is not on record here.

The values that follow come from US7446199B2, “Compositions useful as inhibitors of protein kinases” (Vertex Pharmaceuticals Incorporated, priority 2003, dated 2008).

Usually Ki stands for the equilibrium dissociation constant of an inhibitor or competing ligand from its target. Take `CN1CCN(c2ccc(-c3cnc4[nH]cc(-c5oncc5-c5cccc(F)c5F)c4c3)cc2)CC1` [Compound 70, 3-[4-(2,3-Difluoro-phenyl)-isoxazol-5-yl]-5-[4-(4-methyl-piperazin-1-yl)-phenyl]-1H-pyrrolo[2,3-b]pyridine methanesulfonate]: the figures for the Ki at SYK and on TAK1A-TAB fusion protein were 200 to 1000 nM and below 200 nM, respectively.
As for `CS(=O)(=O)Nc1ccc(-c2cnc3[nH]cc(-c4oncc4-c4cccc(F)c4F)c3c2)cc1` [Compound 98, N-(4-{3-[4-(2,3-Difluoro-phenyl)-isoxazol-5-yl]-1H-pyrrolo[2,3-b]pyridin-5-yl}-phenyl)-methane sulfonamide], the Ki at SYK fell in the range of 1000 to 12500 nM; at TAK1A-TAB fusion protein it was 200 to 1000 nM.
Regarding `Fc1cccc(-c2cnoc2-c2c[nH]c3ncc(-c4cnc5[nH]ccc5c4)cc23)c1F` [Compound 77, 3-[4-(2,3-Difluoro-phenyl)-isoxazol-5-yl]-1H,1′H-[5,5′]bi[pyrrolo[2,3-b]pyridinyl]], the Ki on SYK and at TAK1A-TAB fusion protein was 200 to 1000 nM in each case.
